What follows are molecules tested against T1, Kinase A and SpoOF (Bacillus subtilis, UniProt P16497) (assay: Autophosphorylation of Kinase A and Transphosphorylation of SPoOF Assay). Conditions: inhibition of Kinase A autophosphorylation / SpoOF transphosphorylation, [32P]ATP, gel, phosphoimager.
T1 sequence (P16497 1-606): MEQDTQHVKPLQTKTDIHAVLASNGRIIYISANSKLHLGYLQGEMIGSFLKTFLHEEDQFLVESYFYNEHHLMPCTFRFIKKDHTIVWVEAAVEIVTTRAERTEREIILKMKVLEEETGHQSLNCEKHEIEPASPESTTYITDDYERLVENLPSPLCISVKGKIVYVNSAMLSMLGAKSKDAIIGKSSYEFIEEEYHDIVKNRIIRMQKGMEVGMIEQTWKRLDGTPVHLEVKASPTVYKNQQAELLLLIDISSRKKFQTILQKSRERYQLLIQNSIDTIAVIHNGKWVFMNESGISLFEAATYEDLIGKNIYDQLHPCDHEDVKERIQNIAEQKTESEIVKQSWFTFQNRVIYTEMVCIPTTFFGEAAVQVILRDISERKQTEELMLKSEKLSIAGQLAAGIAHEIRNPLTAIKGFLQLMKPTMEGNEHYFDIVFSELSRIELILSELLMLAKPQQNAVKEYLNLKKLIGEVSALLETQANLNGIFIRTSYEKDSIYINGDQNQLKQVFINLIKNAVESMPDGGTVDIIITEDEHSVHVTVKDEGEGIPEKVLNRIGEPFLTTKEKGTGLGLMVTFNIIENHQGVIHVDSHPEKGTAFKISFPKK
Assay type: biochemical
For C1=CC(CCOc2ccc(CCNCCN3CCCC3)cc2)(Cc2ccccc2)CCC1 (stereo not shown) [Compound 1], the “IC50” value was 210 mM and the “IC min” value was 62.5 mM. NCc1ccc(OCCC2(Cc3cccc(Cl)c3)C=CCCC2)cc1 (stereo not shown) [Compound 5] was tested, and the “IC50” value was 18.5 mM and the “IC min” value was 15.6 mM. N=C(N)NCc1ccc(OCCC2(Cc3cccc(Cl)c3)C=CCCC2)cc1 (stereo not shown) [Compound 6] was tested, and the “IC50” value was 35.8 mM. For NC(=O)c1ccc(OCCC2(Cc3cccc(Cl)c3)C=CCCC2)cc1 (stereo not shown) [Compound 7], the “IC50” value was 330 mM. With CNCCCc1cnc(SCCC2(Cc3ccccc3)C=CCCC2)nc1 (stereo not shown) [Compound 8] the “IC50” value was 92.3 mM. For COc1cc(CN)ccc1OCCC1(Cc2ccccc2)C=CCCC1 (stereo not shown) [Compound 9], the “IC50” value was 446 mM and the “IC min” value was 250 mM. With CCNCCc1ccc(NCCC2(Cc3ccccc3)C=CCCC2)cc1 (stereo not shown) [Compound 10] the “IC50” value was 257 mM and the “IC min” value was 125 mM. With NCCCCc1ccc(OCCC2(Cc3ccccc3)C=CCCC2)cc1 (stereo not shown) [Compound 11] the “IC50” value was 353 mM and the “IC min” value was 125 mM. With O=C(O)CCc1ccc(OCCC2(c3ccc(F)cc3)C=CCCC2)cc1 (stereo not shown) [Compound 12] the “IC50” value was 354 mM and the “IC min” value was 125 mM. In the case of NCCc1ccc(OCCC2(Cc3ccccc3)CCCCC2)cc1 [Compound 13], the “IC50” value is reported as 39.5 mM and the “IC min” value is reported as 7.8 mM. For CC(C)NCCc1ccc(OCCC2(CCCc3ccccc3)CCCCC2)cc1 [Compound 14], the “IC min” value was 500 mM. For CNCCCc1ccc(OCCC2(CCO)C=CCCC2)cc1 (stereo not shown) [Compound 15], the “IC50” value was 432 mM and the “IC min” value was 125 mM. In the case of NCCc1ccc(OCCC2(Cc3ccc([N+](=O)[O-])cc3)CCCCC2)cc1 [Compound 16], the “IC50” value is reported as 43.5 mM and the “IC min” value is reported as 15.6 mM. For NCCCc1ccc(OCCC2(Cc3ccccc3)C=CCCC2)cc1 (stereo not shown) [Compound 18], the “IC50” value was 261 mM and the “IC min” value was 125 mM. In the case of CNCCCc1ccc(OCCC2(Cc3ccccc3)C=CCCC2)cc1 (stereo not shown) [Compound 19], the “IC50” value is reported as 82.1 mM and the “IC min” value is reported as 62.5 mM. In the case of CN(C)CCCc1ccc(OCCC2(Cc3ccccc3)C=CCCC2)cc1 (stereo not shown) [Compound 20], the “IC50” value is reported as 122 mM. For C1=CC(CCOc2ccc(CCCNCCN3CCOCC3)cc2)(Cc2ccccc2)CCC1 (stereo not shown) [Compound 21], the “IC50” value was 728 mM and the “IC min” value was 500 mM. With CC(C)C1(CCOc2ccc(CCN)cc2)C=CCCC1 (stereo not shown) [Compound 22] the “IC50” value was 94.7 mM and the “IC min” value was 31.25 mM. CC(C)C1(CCOc2ccc(CCNCCN3CCCC3)cc2)C=CCCC1 (stereo not shown) [Compound 23] was tested, and the “IC50” value was 295 mM and the “IC min” value was 125 mM. For OCCNCCCc1ccc(OCCC2(c3ccc(F)cc3)C=CCCC2)cc1 (stereo not shown) [Compound 25], the “IC50” value was 200 mM and the “IC min” value was 125 mM. In the case of CCCCNCCCc1ccc(OCCC2(c3ccc(F)cc3)C=CCCC2)cc1 (stereo not shown) [Compound 26], the “IC50” value is reported as 437 mM and the “IC min” value is reported as 250 mM. In the case of CCCNCCCc1ccc(OCCC2(c3ccc(F)cc3)C=CCCC2)cc1 (stereo not shown) [Compound 27], the “IC50” value is reported as 318 mM and the “IC min” value is reported as 125 mM. In the case of Fc1ccc(C2(CCOc3ccc(CCCNCc4ccccc4)cc3)C=CCCC2)cc1 (stereo not shown) [Compound 28], the “IC min” value is reported as greater than 1000 mM. With CNCCc1ccc(OCCCC2(Cc3ccccc3)C=CCCC2)cc1 (stereo not shown) [Compound 30] the “IC50” value was 145 mM and the “IC min” value was 125 mM. For CNCCCc1ccc(OCCC2(CCCc3ccccc3)C=CCCC2)cc1 (stereo not shown) [Compound 31], the “IC50” value was 91 mM and the “IC min” value was 62.5 mM. CCCCC1(CCOc2ccc(CCCNC)cc2)C=CCCC1 (stereo not shown) [Compound 32] was tested, and the “IC50” value was 164 mM and the “IC min” value was 125 mM. For NCCc1ccc(OCCC2(Cc3ccc(Cl)cc3)C=CCCC2)cc1 (stereo not shown) [Compound 33], the “IC50” value was 339.5 mM and the “IC min” value was 125 mM. With CNCCCc1ccc(OCCC2(C(C)C)C=CCCC2)cc1 (stereo not shown) [Compound 35] the “IC50” value was 468.4 mM and the “IC min” value was 125 mM. With CNCCc1ccccc1OCCC1(Cc2ccccc2)C=CCCC1 (stereo not shown) [Compound 36] the “IC min” value was 500 mM. For CNCCc1cccc(OCCC2(Cc3ccccc3)C=CCCC2)c1 (stereo not shown) [Compound 37], the “IC50” value was 107.7 mM and the “IC min” value was 62.5 mM. N=C(N)NCCCc1ccc(OCCC2(Cc3ccccc3)C=CCCC2)cc1 (stereo not shown) [Compound 38] was tested, and the “IC50” value was 164.1 mM and the “IC min” value was 125 mM. For NCCc1ccc(OCCC2(Cc3cccc(Cl)c3)C=CCCC2)cc1 (stereo not shown) [Compound 39], the “IC50” value was 61.5 mM and the “IC min” value was 31.25 mM. Clc1cccc(CC2(CCOc3ccc(CCNCCN4CCCC4)cc3)C=CCCC2)c1 (stereo not shown) [Compound 40] was tested, and the “IC50” value was 46.8 mM and the “IC min” value was 31.25 mM. CNCCCc1ccc(OCCC2(Cc3ccc(OC)cc3)C=CCCC2)cc1 (stereo not shown) [Compound 42] was tested, and the “IC50” value was 139 mM and the “IC min” value was 62.5 mM. With COc1ccc(CC2(CCOc3ccc(CCCN)cc3)C=CCCC2)cc1 (stereo not shown) [Compound 43] the “IC50” value was 210 mM and the “IC min” value was 125 mM. For COc1ccc(CC2(CCOc3ccc(CCCNCCN4CCCC4)cc3)C=CCCC2)cc1 (stereo not shown) [Compound 44], the “IC50” value was 133 mM and the “IC min” value was 62.5 mM. With N=C(N)NCCc1ccc(OCCC2(Cc3cccc(Cl)c3)C=CCCC2)cc1 (stereo not shown) [Compound 45] the “IC50” value was 17.9 mM and the “IC min” value was 15.6 mM. With COc1ccc(CC2(CCOc3ccc(CCNC(=N)N)cc3)C=CCCC2)cc1 (stereo not shown) [Compound 47] the “IC50” value was 21 mM and the “IC min” value was 15.6 mM. In the case of CNCCCc1cnc(NCCC2(Cc3ccccc3)C=CCCC2)nc1 (stereo not shown) [Compound 48], the “IC min” value is reported as 500 mM. In the case of COc1ccc(CC2(CCOc3ccc(C(N)=O)cc3)C=CCCC2)cc1 (stereo not shown) [Compound 51], the “IC min” value is reported as greater than 1000 mM. In the case of NCCCc1ccc(OCCC2(Cc3ccc(Cl)cc3)C=CCCC2)cc1 (stereo not shown) [Compound 52], the “IC50” value is reported as 174 mM. In the case of COc1ccc(CC2(CCOc3ccccc3CN)C=CCCC2)cc1 (stereo not shown) [Compound 54], the “IC50” value is reported as 122 mM. NCc1ccccc1OCCC1(Cc2ccccc2Cl)C=CCCC1 (stereo not shown) [Compound 55] was tested, and the “IC50” value was 91.3 mM. For COc1ccc(CC2(CCOc3cccc(CNC(=N)N)c3)C=CCCC2)cc1 (stereo not shown) [Compound 56], the “IC50” value was 66.6 mM. For COc1ccc(CC2(CCOc3ccc(CNC(=N)N)cc3)C=CCCC2)cc1 (stereo not shown) [Compound 57], the “IC50” value was 46.6 mM. For NCc1cccc(OCCC2(Cc3cc(Cl)cc(Cl)c3)C=CCCC2)c1 (stereo not shown) [Compound 58], the “IC50” value was 74.8 mM. NCCNCCc1ccc(OCCC2(Cc3cccc(Cl)c3)C=CCCC2)cc1 (stereo not shown) [Compound 61] was tested, and the “IC50” value was 94.6 mM and the “IC min” value was 62.5 mM.
